≈ marks a conversion by molar mass, not a printed value.
Experiments:
Salmonella typhimurium [1] = assay: Mutagenicity in Salmonella typhimurium TA98 at 0.3125 mg/ml after 48 hrs by Ames MPF assay in presence of Sprague-Dawley rat liver S9 fraction; type: toxicity, organism-based; details: salmonella enterica subsp. enterica serovar typhimurium, s9, 48 h
Pichia kudriavzevii = assay: Antifungal activity against Candida krusei NRLL Y-7179 after 48 hrs by broth microdilution method; type: functional; details: NRLL Y-7179, 48 h
[2] = Genotoxicity in Salmonella typhimurium TA1535/pSK1002 assessed as induction ratio at 0.625 mg/ml after 2 hrs by umuC assay in presence of Sprague-Dawley rat liver S9 fraction; type: toxicity, organism-based; details: salmonella enterica subsp. enterica serovar typhimurium
[3] = Genotoxicity in Salmonella typhimurium TA1535/pSK1002 assessed as induction ratio at 0.3125 mg/ml after 2 hrs by umuC assay in absence of Sprague-Dawley rat liver S9 fraction; type: toxicity, organism-based; details: salmonella enterica subsp. enterica serovar typhimurium
[4] = Genotoxicity in Salmonella typhimurium TA1535/pSK1002 assessed as induction ratio at 2.5 mg/ml after 2 hrs by umuC assay in absence of Sprague-Dawley rat liver S9 fraction; type: toxicity, organism-based; details: salmonella enterica subsp. enterica serovar typhimurium
Salmonella typhimurium [5] = assay: Mutagenicity in Salmonella typhimurium TA100 at 0.3125 mg/ml after 48 hrs by Ames MPF assay in absence of Sprague-Dawley rat liver S9 fraction; type: toxicity, organism-based; details: salmonella enterica subsp. enterica serovar typhimurium
Salmonella typhimurium [6] = assay: Mutagenicity in Salmonella typhimurium TA98 at 2.5 mg/ml after 48 hrs by Ames MPF assay in presence of Sprague-Dawley rat liver S9 fraction; type: toxicity, organism-based; details: salmonella enterica subsp. enterica serovar typhimurium, s9, 48 h
Salmonella typhimurium [7] = assay: Mutagenicity in Salmonella typhimurium TA98 at 1.25 mg/ml after 48 hrs by Ames MPF assay in presence of Sprague-Dawley rat liver S9 fraction; type: toxicity, organism-based; details: salmonella enterica subsp. enterica serovar typhimurium, s9, 48 h
Salmonella typhimurium [8] = assay: Mutagenicity in Salmonella typhimurium TA98 at 5 mg/ml after 48 hrs by Ames MPF assay in presence of Sprague-Dawley rat liver S9 fraction; type: toxicity, organism-based; details: salmonella enterica subsp. enterica serovar typhimurium, s9, 48 h
Salmonella typhimurium [9] = assay: Mutagenicity in Salmonella typhimurium TA98 at 5 mg/ml after 48 hrs by Ames MPF assay in absence of Sprague-Dawley rat liver S9 fraction; type: toxicity, organism-based; details: salmonella enterica subsp. enterica serovar typhimurium
Salmonella typhimurium [10] = assay: Mutagenicity in Salmonella typhimurium TA100 at 0.625 mg/ml after 48 hrs by Ames MPF assay in absence of Sprague-Dawley rat liver S9 fraction; type: toxicity, organism-based; details: salmonella enterica subsp. enterica serovar typhimurium
[11] = Genotoxicity in Salmonella typhimurium TA1535/pSK1002 assessed as induction ratio at 5 mg/ml after 2 hrs by umuC assay in presence of Sprague-Dawley rat liver S9 fraction; type: toxicity, organism-based; details: salmonella enterica subsp. enterica serovar typhimurium
Salmonella typhimurium [12] = assay: Genotoxicity in Salmonella typhimurium TA1535/pSK1002 assessed as growth factor at 1.25 mg/ml after 2 hrs by umuC assay in absence of Sprague-Dawley rat liver S9 fraction; type: toxicity, organism-based; details: salmonella enterica subsp. enterica serovar typhimurium
Salmonella typhimurium [13] = assay: Genotoxicity in Salmonella typhimurium TA1535/pSK1002 assessed as growth factor at 0.156 mg/ml after 2 hrs by umuC assay in absence of Sprague-Dawley rat liver S9 fraction; type: toxicity, organism-based; details: salmonella enterica subsp. enterica serovar typhimurium
Salmonella typhimurium [14] = assay: Genotoxicity in Salmonella typhimurium TA1535/pSK1002 assessed as growth factor at 5 mg/ml after 2 hrs by umuC assay in absence of Sprague-Dawley rat liver S9 fraction; type: toxicity, organism-based; details: salmonella enterica subsp. enterica serovar typhimurium
[15] = Genotoxicity in Salmonella typhimurium TA1535/pSK1002 assessed as induction ratio at 0.3125 mg/ml after 2 hrs by umuC assay in presence of Sprague-Dawley rat liver S9 fraction; type: toxicity, organism-based; details: salmonella enterica subsp. enterica serovar typhimurium
Salmonella typhimurium [16] = assay: Mutagenicity in Salmonella typhimurium TA98 at 1.25 mg/ml after 48 hrs by Ames MPF assay in absence of Sprague-Dawley rat liver S9 fraction; type: toxicity, organism-based; details: salmonella enterica subsp. enterica serovar typhimurium
[17] = Genotoxicity in Salmonella typhimurium TA1535/pSK1002 assessed as induction ratio at 0.156 mg/ml after 2 hrs by umuC assay in absence of Sprague-Dawley rat liver S9 fraction; type: toxicity, organism-based; details: salmonella enterica subsp. enterica serovar typhimurium
Salmonella typhimurium [18] = assay: Genotoxicity in Salmonella typhimurium TA1535/pSK1002 assessed as growth factor at 0.3125 mg/ml after 2 hrs by umuC assay in absence of Sprague-Dawley rat liver S9 fraction; type: toxicity, organism-based; details: salmonella enterica subsp. enterica serovar typhimurium
[19] = Genotoxicity in Salmonella typhimurium TA1535/pSK1002 assessed as induction ratio at 1.25 mg/ml after 2 hrs by umuC assay in absence of Sprague-Dawley rat liver S9 fraction; type: toxicity, organism-based; details: salmonella enterica subsp. enterica serovar typhimurium
Salmonella typhimurium [20] = assay: Mutagenicity in Salmonella typhimurium TA100 at 0.625 mg/ml after 48 hrs by Ames MPF assay in presence of Sprague-Dawley rat liver S9 fraction; type: toxicity, organism-based; details: salmonella enterica subsp. enterica serovar typhimurium, s9, 48 h
[21] = Cytotoxicity against mouse NIH/3T3 cells after 24 hrs by XTT assay; type: cell-based; details: NIH3T3, 24 h
Salmonella typhimurium [22] = assay: Genotoxicity in Salmonella typhimurium TA1535/pSK1002 assessed as growth factor at 0.625 mg/ml after 2 hrs by umuC assay in absence of Sprague-Dawley rat liver S9 fraction; type: toxicity, organism-based; details: salmonella enterica subsp. enterica serovar typhimurium
Salmonella typhimurium [23] = assay: Mutagenicity in Salmonella typhimurium TA100 at 1.25 mg/ml after 48 hrs by Ames MPF assay in presence of Sprague-Dawley rat liver S9 fraction; type: toxicity, organism-based; details: salmonella enterica subsp. enterica serovar typhimurium, s9, 48 h
Salmonella typhimurium [24] = assay: Mutagenicity in Salmonella typhimurium TA98 at 0.625 mg/ml after 48 hrs by Ames MPF assay in absence of Sprague-Dawley rat liver S9 fraction; type: toxicity, organism-based; details: salmonella enterica subsp. enterica serovar typhimurium
Salmonella typhimurium [25] = assay: Mutagenicity in Salmonella typhimurium TA98 at 0.156 mg/ml after 48 hrs by Ames MPF assay in presence of Sprague-Dawley rat liver S9 fraction; type: toxicity, organism-based; details: salmonella enterica subsp. enterica serovar typhimurium, s9, 48 h
[26] = Genotoxicity in Salmonella typhimurium TA1535/pSK1002 assessed as induction ratio at 5 mg/ml after 2 hrs by umuC assay in absence of Sprague-Dawley rat liver S9 fraction; type: toxicity, organism-based; details: salmonella enterica subsp. enterica serovar typhimurium
[Candida] zeylanoides = Antifungal activity against Candida zeylanoides NRLL Y-1774 after 48 hrs by broth microdilution method; type: functional; details: Dujonia zeylanoides, NRLL Y-1774, 48 h
[27] = Genotoxicity in Salmonella typhimurium TA1535/pSK1002 assessed as induction ratio at 1.25 mg/ml after 2 hrs by umuC assay in presence of Sprague-Dawley rat liver S9 fraction; type: toxicity, organism-based; details: salmonella enterica subsp. enterica serovar typhimurium
Salmonella typhimurium [28] = assay: Mutagenicity in Salmonella typhimurium TA100 at 0.156 mg/ml after 48 hrs by Ames MPF assay in presence of Sprague-Dawley rat liver S9 fraction; type: toxicity, organism-based; details: salmonella enterica subsp. enterica serovar typhimurium, s9, 48 h
Salmonella typhimurium [29] = assay: Genotoxicity in Salmonella typhimurium TA1535/pSK1002 assessed as growth factor at 1.25 mg/ml after 2 hrs by umuC assay in presence of Sprague-Dawley rat liver S9 fraction; type: toxicity, organism-based; details: salmonella enterica subsp. enterica serovar typhimurium, s9, 2 h
Fusarium solani = assay: Antifungal activity against Fusarium solani NRRL-13414 after 72 hrs by broth microdilution method; type: functional; details: NRRL-13414, 72 h
[30] = Genotoxicity in Salmonella typhimurium TA1535/pSK1002 assessed as induction ratio at 0.156 mg/ml after 2 hrs by umuC assay in presence of Sprague-Dawley rat liver S9 fraction; type: toxicity, organism-based; details: salmonella enterica subsp. enterica serovar typhimurium
Salmonella typhimurium [31] = assay: Mutagenicity in Salmonella typhimurium TA98 at 2.5 mg/ml after 48 hrs by Ames MPF assay in absence of Sprague-Dawley rat liver S9 fraction; type: toxicity, organism-based; details: salmonella enterica subsp. enterica serovar typhimurium
Candida tropicalis = assay: Antifungal activity against Candida tropicalis NRLL Y-12968 after 48 hrs by broth microdilution method; type: functional; details: NRLL Y-12968, 48 h
Nakaseomyces glabratus = assay: Antifungal activity against clinical isolate Candida glabrata after 48 hrs by broth microdilution method; type: functional

| Structure (SMILES) | fold change (FC) (Salmonella typhimurium [1]) | MIC (Pichia kudriavzevii) | fold induction at 2 h, 0.625 mg/ml [2] | fold induction at 2 h, 0.3125 mg/ml [3] | fold induction at 2 h, 2.5 mg/ml [4] | fold change (FC) (Salmonella typhimurium [5]) | fold change (FC) (Salmonella typhimurium [6]) | fold change (FC) (Salmonella typhimurium [7]) | fold change (FC) (Salmonella typhimurium [8]) | fold change (FC) (Salmonella typhimurium [9]) | fold change (FC) (Salmonella typhimurium [10]) | fold induction at 2 h, 5 mg/ml [11] | Activity (Salmonella typhimurium [12]) | Activity (Salmonella typhimurium [13]) | Activity (Salmonella typhimurium [14]) | fold induction at 2 h, 0.3125 mg/ml [15] | fold change (FC) (Salmonella typhimurium [16]) | fold induction at 2 h, 0.156 mg/ml [17] | Activity (Salmonella typhimurium [18]) | fold induction at 2 h, 1.25 mg/ml [19] | further results |
| --- | --- | --- | --- | --- | --- | --- | --- | --- | --- | --- | --- | --- | --- | --- | --- | --- | --- | --- | --- | --- | --- |
| Fc1cccc(/C=N/NC(=S)Nc2cccc3ccccc23)c1F | 0.84 | 250 µg/mL (≈ 732 µM) | 1.39 | 1.79 | 5.25 | 0.36 | 0.47 | 0.84 | 0.56 | 0.34 | 0.42 | 1.46 | 0.131 | 0.14 | 0.146 | 2.81 | 0.34 | 6 | 0.115 | 1.63 | fold change (FC) (Salmonella typhimurium [20]): 0.92; IC50 [21]: > 500 µg/mL; Activity (Salmonella typhimurium [22]): 0.137; fold change (FC) (Salmonella typhimurium [23]): 0.68; fold change (FC) (Salmonella typhimurium [24]): 0; fold change (FC) (Salmonella typhimurium [25]): 0.94; fold induction at 2 h, 5 mg/ml [26]: 1.55; MIC ([Candida] zeylanoides): 250 µg/mL (≈ 732 µM); fold induction at 2 h, 1.25 mg/ml [27]: 1.42; fold change (FC) (Salmonella typhimurium [28]): 1.02; Activity (Salmonella typhimurium [29]): 0.228; MIC (Fusarium solani): 250 µg/mL (≈ 732 µM); fold induction at 2 h, 0.156 mg/ml [30]: 5.34; fold change (FC) (Salmonella typhimurium [31]): 0; MIC (Candida tropicalis): 250 µg/mL (≈ 732 µM); MIC (Nakaseomyces glabratus): 125 µg/mL (≈ 366 µM) |
| Fc1ccc(F)c(/C=N/NC(=S)Nc2cccc3ccccc23)c1 | 1.12 | 250 µg/mL (≈ 732 µM) | 5.34 | 1.3 | 1.75 | 0 | 0.56 | 0.65 | 0.65 | 0.17 | 0.18 | 1.42 | 0.115 | 0.142 | 0.131 | 1.4 | 0.34 | 1.79 | 0.168 | 1.79 | fold change (FC) (Salmonella typhimurium [20]): 0.44; IC50 [21]: > 500 µg/mL; Activity (Salmonella typhimurium [22]): 0.14; fold change (FC) (Salmonella typhimurium [23]): 0.44; fold change (FC) (Salmonella typhimurium [24]): 0; fold change (FC) (Salmonella typhimurium [25]): 0.65; fold induction at 2 h, 5 mg/ml [26]: 1.63; MIC ([Candida] zeylanoides): 250 µg/mL (≈ 732 µM); fold induction at 2 h, 1.25 mg/ml [27]: 2.81; fold change (FC) (Salmonella typhimurium [28]): 0.48; Activity (Salmonella typhimurium [29]): 0.121; MIC (Fusarium solani): 250 µg/mL (≈ 732 µM); fold induction at 2 h, 0.156 mg/ml [30]: 1.5; fold change (FC) (Salmonella typhimurium [31]): 0; MIC (Candida tropicalis): 250 µg/mL (≈ 732 µM); MIC (Nakaseomyces glabratus): 125 µg/mL (≈ 366 µM) |

From ChEMBL document CHEMBL3758081, “Synthesis and biological evaluation of new naphthalene substituted thiosemicarbazone derivatives as potent antifungal and anticancer agents” (Eur J Med Chem, 2016)
